The NIST ThermoML archive (doi:10.1021/acs.jced.7b00712)

Conditions: Fluid (supercritical or subcritical phases), Brillouin light scattering

CC(C)CC(C)(C)C [2,2,4-trimethylpentane]
Conditions | speed of sound [m/s]
543.74 K, 6000 kPa | 314.4
544.07 K, 10000 kPa | 409.3
544.08 K, 12000 kPa | 448.4
547.77 K, 3000 kPa | 135.2
548.38 K, 4000 kPa | 216.1
548.79 K, 5000 kPa | 262.4
548.93 K, 12000 kPa | 439.8
548.94 K, 6000 kPa | 301.9
549.02 K, 10000 kPa | 399.6
552.48 K, 3000 kPa | 103.8
553.35 K, 4000 kPa | 194.1
553.8 K, 5000 kPa | 247.6
553.96 K, 6000 kPa | 286.4
554.24 K, 12000 kPa | 430.8
554.27 K, 10000 kPa | 392.6
558.01 K, 3000 kPa | 97.9
558.52 K, 10000 kPa | 386.7
558.54 K, 12000 kPa | 426
559.12 K, 6000 kPa | 272.8
559.16 K, 5000 kPa | 232.4
559.18 K, 4000 kPa | 172.1
563.28 K, 4000 kPa | 154.4
564.27 K, 5000 kPa | 214.5
564.68 K, 12000 kPa | 415.3
564.81 K, 10000 kPa | 374.5
564.85 K, 6000 kPa | 257.3
567.24 K, 3000 kPa | 109.9
568.08 K, 4000 kPa | 137.3
569.24 K, 5000 kPa | 201.2
569.81 K, 12000 kPa | 404.7
570.06 K, 6000 kPa | 244.3
570.54 K, 10000 kPa | 362.4
570.76 K, 3000 kPa | 112.7
573.32 K, 4000 kPa | 122.1
574.23 K, 5000 kPa | 187
574.7 K, 6000 kPa | 233
574.8 K, 12000 kPa | 398.5
575.07 K, 10000 kPa | 354
576.9 K, 3000 kPa | 117.3
578.09 K, 4000 kPa | 114.9
579 K, 5000 kPa | 173.2
579.62 K, 6000 kPa | 222.1
580.26 K, 12000 kPa | 388.5
580.32 K, 10000 kPa | 343.6
582.97 K, 4000 kPa | 114.7
583.34 K, 3000 kPa | 121.9
584.13 K, 5000 kPa | 161.6
584.82 K, 6000 kPa | 208.9
585.19 K, 12000 kPa | 379.7
585.35 K, 10000 kPa | 337.5
586.96 K, 3000 kPa | 125
587.1 K, 4000 kPa | 116
588.18 K, 5000 kPa | 151.1
588.98 K, 6000 kPa | 199.3
589.39 K, 12000 kPa | 374.8
589.65 K, 10000 kPa | 331.2
592.49 K, 4000 kPa | 117.9
592.79 K, 3000 kPa | 130.8
593.39 K, 5000 kPa | 140.6
594.09 K, 6000 kPa | 191.7
594.93 K, 12000 kPa | 363.8
595.15 K, 10000 kPa | 318.7
597.57 K, 4000 kPa | 119.2
597.98 K, 3000 kPa | 136.1
598.54 K, 5000 kPa | 135.1
599.18 K, 6000 kPa | 184.6
600.35 K, 10000 kPa | 311.6
600.58 K, 12000 kPa | 356.1
602.34 K, 4000 kPa | 121.2
602.56 K, 3000 kPa | 141.1
603.22 K, 5000 kPa | 132.5
604.02 K, 6000 kPa | 175.1
604.68 K, 12000 kPa | 350.2
605.01 K, 10000 kPa | 304.3
607.09 K, 4000 kPa | 124.3
607.67 K, 5000 kPa | 131
607.97 K, 3000 kPa | 145.8
608.43 K, 6000 kPa | 167.7
609.5 K, 12000 kPa | 342.6
609.62 K, 10000 kPa | 295.9
612.44 K, 4000 kPa | 129.9
612.74 K, 5000 kPa | 131.9
613.31 K, 3000 kPa | 150.4
613.49 K, 6000 kPa | 164.3
614.69 K, 10000 kPa | 286.8
614.9 K, 12000 kPa | 336.6
617.81 K, 4000 kPa | 134.8
618.08 K, 5000 kPa | 135
618.6 K, 6000 kPa | 159.9
618.84 K, 3000 kPa | 154.9
619.6 K, 12000 kPa | 329.3
619.8 K, 10000 kPa | 281.3
622.75 K, 4000 kPa | 139
622.82 K, 5000 kPa | 137.2
623.43 K, 6000 kPa | 156.1
623.75 K, 3000 kPa | 159.5
624.61 K, 12000 kPa | 321.5
624.7 K, 10000 kPa | 276.4
627.69 K, 5000 kPa | 141.2
628.07 K, 4000 kPa | 145.5
628.11 K, 6000 kPa | 153.4
629.13 K, 10000 kPa | 269.4
629.2 K, 12000 kPa | 316.9
629.42 K, 3000 kPa | 164
631.25 K, 5000 kPa | 143.4
631.51 K, 6000 kPa | 156
632.19 K, 4000 kPa | 148.1
633.71 K, 3000 kPa | 166.1
